biological target: T1, S. aureus TrmD (Staphylococcus aureus, UniProt Q2FZ43); experiment: nanoSAR direct-to-biology FP displacement screening of crude triazoles; format: binding; settings: crude triazole at 1 μM, assuming full conversion; 500 nM TrmD, 10 nM tracer 4
T1 construct: made in house; host or cells: E. coli BL21
T1 sequence (Q2FZ43 1-245): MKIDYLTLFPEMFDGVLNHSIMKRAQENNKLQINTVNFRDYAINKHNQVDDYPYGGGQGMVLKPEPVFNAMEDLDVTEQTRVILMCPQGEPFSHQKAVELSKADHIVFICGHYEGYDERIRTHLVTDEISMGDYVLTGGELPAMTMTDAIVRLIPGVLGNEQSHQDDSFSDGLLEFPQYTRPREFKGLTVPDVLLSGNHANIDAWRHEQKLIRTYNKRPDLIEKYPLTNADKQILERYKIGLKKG
In short: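 S. aureus TrmD (500 nM) with tracer 4 (10 nM) in Tris/NaCl/MgCl2/glycerol buffer, pH 7.5, was challenged with unpurified triazoles from in situ CuAAC of alkyne 7 with a 320-member azide library.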

Q: `C[C@H](N)Cn1cc(-c2c[nH]c3nc[nH]c(=O)c23)nn1` [Compound 03F01, O=C1NC=NC=2NC=C(C=3N=NN(C3)C[C@@H]([NH3+])C)C12] was tested. Which “% displaced tracer” value did it give?
A: 56%

same assay, conditions: crude triazole at 1 μM, assuming full conversion; 500 nM TrmD, 10 nM tracer 4; read-out: % displaced tracer

Q: With `COC(=O)c1ccc(-n2cc(-c3c[nH]c4nc[nH]c(=O)c34)nn2)cc1` [Compound 03D08, O=C(OC)c1ccc(N2N=NC(C=3C=4C(=O)NC=NC4NC3)=C2)cc1] as the molecule, how does the inhibition at 1 µM read?
A: 11%

Q: For `CCO[C@@H]1CCCC[C@H]1n1cc(-c2c[nH]c3nc[nH]c(=O)c23)nn1` [Compound 03D09, O=C1NC=NC=2NC=C(C=3N=NN(C3)[C@H]4[C@H](OCC)CCCC4)C12], which inhibition at 1 µM is on record?
A: 25%

Q: For `O=c1[nH]cnc2[nH]cc(-c3cn(C[C@H]4COCCO4)nn3)c12` [Compound 03D10, O=C1NC=NC2=C1C(C3=CN(C[C@H]4COCCO4)N=N3)=CN2], which inhibition at 1 µM is on record?
A: 57%

Q: Which inhibition at 1 µM does the source give for `O=c1[nH]cnc2[nH]cc(-c3cn(Cc4cccc(Cl)c4)nn3)c12` [Compound 03D11, Clc1cc(ccc1)CN2N=NC(C=3C=4C(=O)NC=NC4NC3)=C2] here?
A: 75%

Q: `O=c1[nH]cnc2[nH]cc(-c3cn(C[C@H](O)C(F)(F)F)nn3)c12` [Compound 03D12, FC(F)(F)[C@@H](O)CN1N=NC(C=2C=3C(=O)NC=NC3NC2)=C1] was tested. Which inhibition at 1 µM did it give?
A: 71%

Q: For `O=c1[nH]cnc2[nH]cc(-c3cn([C@@H]4CCOC4)nn3)c12` [Compound 03E01, O=C1NC=NC=2NC=C(C=3N=NN(C3)[C@H]4COCC4)C12], which inhibition at 1 µM is on record?
A: 27%

Q: With `CN1CC[C@@H](n2cc(-c3c[nH]c4nc[nH]c(=O)c34)nn2)C1=O` [Compound 03E02, O=C1NC=NC=2NC=C(C=3N=NN(C3)[C@H]4C(=O)N(CC4)C)C12] as the molecule, how does the inhibition at 1 µM read?
A: 27%

Q: For `CN(C)[C@@H]1CCN(CCn2cc(-c3c[nH]c4nc[nH]c(=O)c34)nn2)C1` [Compound 03E03, O=C1NC=NC=2NC=C(C=3N=NN(C3)CC[N@@H+]4C[C@H]([NH+](C)C)CC4)C12], which inhibition at 1 µM is on record?
A: 40%

Q: Which inhibition at 1 µM does the source give for `O=c1[nH]cnc2[nH]cc(-c3cn(Cc4ccc(F)cc4)nn3)c12` [Compound 03E04, Fc1ccc(cc1)CN2N=NC(C=3C=4C(=O)NC=NC4NC3)=C2] here?
A: 85%

Q: How did the inhibition at 1 µM turn out when `CCNCCn1cc(-c2c[nH]c3nc[nH]c(=O)c23)nn1` [Compound 03E05, O=C1NC=NC=2NC=C(C=3N=NN(C3)CC[NH2+]CC)C12] was run?
A: 87%

Q: With `O=c1[nH]cnc2[nH]cc(-c3cn(C[C@@H]4C[C@@H]4C(F)(F)F)nn3)c12` [Compound 03E06, FC(F)(F)[C@@H]1[C@H](CN2N=NC(C=3C=4C(=O)NC=NC4NC3)=C2)C1] as the molecule, how does the inhibition at 1 µM read?
A: 34%

Q: For `N#CC1(Cn2cc(-c3c[nH]c4nc[nH]c(=O)c34)nn2)CCCCC1` [Compound 03E07, O=C1NC=NC=2NC=C(C=3N=NN(C3)CC4(C#N)CCCCC4)C12], which inhibition at 1 µM is on record?
A: 69%

Q: For `O=c1[nH]cnc2[nH]cc(-c3cn(-c4cc(Cl)cc(Cl)c4)nn3)c12` [Compound 03E08, Clc1cc(Cl)cc(N2N=NC(C=3C=4C(=O)NC=NC4NC3)=C2)c1], which inhibition at 1 µM is on record?
A: 23%

Q: With `O=c1[nH]cnc2[nH]cc(-c3cn(CCCN4CCOCC4)nn3)c12` [Compound 03E09, O=C1NC=NC=2NC=C(C=3N=NN(C3)CCC[NH+]4CCOCC4)C12] as the molecule, how does the inhibition at 1 µM read?
A: 66%

Q: For `NCCCn1cc(-c2c[nH]c3nc[nH]c(=O)c23)nn1` [Compound 03E10, O=C1NC=NC=2NC=C(C=3N=NN(C3)CCC[NH3+])C12], which inhibition at 1 µM is on record?
A: 68%

Q: `O=c1[nH]cnc2[nH]cc(-c3cn(CC4CCCC4)nn3)c12` [Compound 03E11, O=C1NC=NC=2NC=C(C=3N=NN(C3)CC4CCCC4)C12] was tested. Which inhibition at 1 µM did it give?
A: 39%

Q: For `CN(C)c1cccc(OCCCn2cc(-c3c[nH]c4nc[nH]c(=O)c34)nn2)c1` [Compound 03E12, O=C1NC=NC=2NC=C(C=3N=NN(C3)CCCOc4cc(N(C)C)ccc4)C12], which inhibition at 1 µM is on record?
A: 80%

Q: For `Cc1cc(Cn2cc(-c3c[nH]c4nc[nH]c(=O)c34)nn2)no1` [Compound 03F02, O=C1NC=NC=2NC=C(C=3N=NN(C3)CC4=NOC(=C4)C)C12], which inhibition at 1 µM is on record?
A: 35%

Q: With `COC(=O)c1cc(-n2cc(-c3c[nH]c4nc[nH]c(=O)c34)nn2)ccn1` [Compound 03F03, O=C(OC)c1nccc(N2N=NC(C=3C=4C(=O)NC=NC4NC3)=C2)c1] as the molecule, how does the inhibition at 1 µM read?
A: 10%

Q: For `O=c1[nH]cnc2[nH]cc(-c3cn(-c4cccc5ccncc45)nn3)c12` [Compound 03F04, O=C1NC=NC=2NC=C(C=3N=NN(c4c5c(ccnc5)ccc4)C3)C12], which inhibition at 1 µM is on record?
A: 22%

Q: Which inhibition at 1 µM does the source give for `COc1nc(OC)nc(-n2cc(-c3c[nH]c4nc[nH]c(=O)c34)nn2)n1` [Compound 03F05, O=C1NC=NC=2NC=C(C=3N=NN(c4nc(OC)nc(OC)n4)C3)C12] here?
A: 33%

Q: `COC(=O)c1cccc2nc(Cn3cc(-c4c[nH]c5nc[nH]c(=O)c45)nn3)cn12` [Compound 03F06, O=C(OC)C=1N2C(=NC(=C2)CN3N=NC(C=4C=5C(=O)NC=NC5NC4)=C3)C=CC1] was tested. Which inhibition at 1 µM did it give?
A: 26%

Q: With `Cc1cc(F)ccc1[C@H](C)n1cc(-c2c[nH]c3nc[nH]c(=O)c23)nn1` [Compound 03F07, Fc1cc(c(cc1)[C@@H](N2N=NC(C=3C=4C(=O)NC=NC4NC3)=C2)C)C] as the molecule, how does the inhibition at 1 µM read?
A: 51%

Q: For `CCC1(Cn2cc(-c3c[nH]c4nc[nH]c(=O)c34)nn2)COC1` [Compound 03F08, O=C1NC=NC=2NC=C(C=3N=NN(C3)CC4(COC4)CC)C12], which inhibition at 1 µM is on record?
A: 76%

Q: `O=c1[nH]cnc2[nH]cc(-c3cn(-c4cc(F)cc(F)c4)nn3)c12` [Compound 03F09, Fc1cc(F)cc(N2N=NC(C=3C=4C(=O)NC=NC4NC3)=C2)c1] was tested. Which inhibition at 1 µM did it give?
A: 25%

Q: Which inhibition at 1 µM does the source give for `Cc1ccc(-n2cc(-c3c[nH]c4nc[nH]c(=O)c34)nn2)nc1` [Compound 03F10, O=C1NC=NC=2NC=C(C=3N=NN(c4ncc(cc4)C)C3)C12] here?
A: 18%

Q: Which inhibition at 1 µM does the source give for `CC(C)(C)OC(=O)N1CCC[C@H](CCn2cc(-c3c[nH]c4nc[nH]c(=O)c34)nn2)CC1` [Compound 03F11, O=C(OC(C)(C)C)N1CC[C@@H](CCN2N=NC(C=3C=4C(=O)NC=NC4NC3)=C2)CCC1] here?
A: 71%

Q: Which inhibition at 1 µM does the source give for `O=c1[nH]cnc2[nH]cc(-c3cn(C4CNC4)nn3)c12` [Compound 03F12, O=C1NC=NC=2NC=C(C=3N=NN(C3)C4C[NH2+]C4)C12] here?
A: 42%

Q: `COc1cccc(-n2cc(-c3c[nH]c4nc[nH]c(=O)c34)nn2)c1` [Compound 03G01, O=C1NC=NC=2NC=C(C=3N=NN(c4cc(OC)ccc4)C3)C12] was tested. Which inhibition at 1 µM did it give?
A: 11%

Q: For `O=c1[nH]cnc2[nH]cc(-c3cn(Cc4cnns4)nn3)c12` [Compound 03G02, S1N=NC=C1CN2N=NC(C=3C=4C(=O)NC=NC4NC3)=C2], which inhibition at 1 µM is on record?
A: 73%

Q: With `Cc1nc2cc(-n3cc(-c4c[nH]c5nc[nH]c(=O)c45)nn3)ccc2[nH]1` [Compound 03G03, O=C1NC=NC=2NC=C(C=3N=NN(c4cc5N=C(Nc5cc4)C)C3)C12] as the molecule, how does the inhibition at 1 µM read?
A: 21%

Q: With `O=c1[nH]cnc2[nH]cc(-c3cn([C@H]4CCc5cccnc54)nn3)c12` [Compound 03G04, O=C1NC=NC=2NC=C(C=3N=NN(C3)[C@@H]4c5ncccc5CC4)C12] as the molecule, how does the inhibition at 1 µM read?
A: 49%

Q: With `Cn1ccc(-n2cc(-c3c[nH]c4nc[nH]c(=O)c34)nn2)n1` [Compound 03G05, O=C1NC=NC=2NC=C(C=3N=NN(C4=NN(C=C4)C)C3)C12] as the molecule, how does the inhibition at 1 µM read?
A: 25%

Q: With `O=c1[nH]cnc2[nH]cc(-c3cn(-c4ccc5[nH]cnc5c4)nn3)c12` [Compound 03G06, O=C1NC=NC=2NC=C(C=3N=NN(c4cc5N=CNc5cc4)C3)C12] as the molecule, how does the inhibition at 1 µM read?
A: 27%

Q: Which inhibition at 1 µM does the source give for `COc1ccccc1[C@H](O)Cn1cc(-c2c[nH]c3nc[nH]c(=O)c23)nn1` [Compound 03G07, O=C1NC=NC=2NC=C(C=3N=NN(C3)C[C@@H](O)c4c(OC)cccc4)C12] here?
A: 37%

Q: `COC(=O)c1csc(Cn2cc(-c3c[nH]c4nc[nH]c(=O)c34)nn2)n1` [Compound 03G08, S1C(=NC(C(=O)OC)=C1)CN2N=NC(C=3C=4C(=O)NC=NC4NC3)=C2] was tested. Which inhibition at 1 µM did it give?
A: 10%

Q: With `O=c1[nH]cnc2[nH]cc(-c3cn(C4COC4)nn3)c12` [Compound 03G09, O=C1NC=NC=2NC=C(C=3N=NN(C3)C4COC4)C12] as the molecule, how does the inhibition at 1 µM read?
A: 19%

Q: With `CN1CCN(CCn2cc(-c3c[nH]c4nc[nH]c(=O)c34)nn2)CC1` [Compound 03G10, O=C1NC=NC=2NC=C(C=3N=NN(C3)CC[N@H+]4CC[N@@H+](CC4)C)C12] as the molecule, how does the inhibition at 1 µM read?
A: 11%

Q: Which inhibition at 1 µM does the source give for `NCc1cccc(-n2cc(-c3c[nH]c4nc[nH]c(=O)c34)nn2)c1` [Compound 03G11, O=C1NC=NC=2NC=C(C=3N=NN(c4cc(ccc4)C[NH3+])C3)C12] here?
A: 32%

Q: Which inhibition at 1 µM does the source give for `O=c1[nH]cnc2[nH]cc(-c3cn(C[C@H]4CCCNC4)nn3)c12` [Compound 03H01, O=C1NC=NC=2NC=C(C=3N=NN(C3)C[C@@H]4C[NH2+]CCC4)C12] here?
A: 56%

Q: With `CC(C)NC(=O)[C@H](C)n1cc(-c2c[nH]c3nc[nH]c(=O)c23)nn1` [Compound 03H02, O=C1NC=NC=2NC=C(C=3N=NN(C3)[C@H](C(=O)NC(C)C)C)C12] as the molecule, how does the inhibition at 1 µM read?
A: 17%

Q: How did the inhibition at 1 µM turn out when `Cc1cccc(CCn2cc(-c3c[nH]c4nc[nH]c(=O)c34)nn2)n1` [Compound 03H03, O=C1NC=NC=2NC=C(C=3N=NN(C3)CCc4nc(ccc4)C)C12] was run?
A: 26%

Q: With `O=c1[nH]cnc2[nH]cc(-c3cn([C@@H]4CCc5c(F)cccc54)nn3)c12` [Compound 03H04, Fc1c2c(ccc1)[C@H](N3N=NC(C=4C=5C(=O)NC=NC5NC4)=C3)CC2] as the molecule, how does the inhibition at 1 µM read?
A: 68%

Q: How did the inhibition at 1 µM turn out when `O=c1[nH]cnc2[nH]cc(-c3cn(CCCN4CCCC4)nn3)c12` [Compound 03H05, O=C1NC=NC=2NC=C(C=3N=NN(C3)CCC[NH+]4CCCC4)C12] was run?
A: 40%

Q: With `COC(=O)C1(n2cc(-c3c[nH]c4nc[nH]c(=O)c34)nn2)CC1` [Compound 03H06, O=C(OC)C1(N2N=NC(C=3C=4C(=O)NC=NC4NC3)=C2)CC1] as the molecule, how does the inhibition at 1 µM read?
A: 24%

Q: How did the inhibition at 1 µM turn out when `O=c1[nH]cnc2[nH]cc(-c3cn(CCCc4ccccc4)nn3)c12` [Compound 03H07, O=C1NC=NC=2NC=C(C=3N=NN(C3)CCCc4ccccc4)C12] was run?
A: 61%

— publication PMC12751012, “Nanoscale Direct-to-Biology Optimization and Structural Insights into Selective S. aureus TrmD Inhibitors” (Journal of Medicinal Chemistry, 2025)
